Test results published in article PMC12340956, “Tranylcypromine-Based LSD1 Inhibitors as Useful Agents to Reduce Viability of” (ACS Infectious Diseases, 2025).
Where two headings read alike, the source gives them in different places.

Columns and labels:
[1] = system: human recombinant LSD1-CoREST enzymatic complex; conditions: Table S1, cited from earlier work
[2] = system: newly transformed schistosomula (NTS); experiment: NTS viability phenotypic screening, 72 h; conditions: for IC50: Schistosoma mansoni, read-out: IC50 (NTS viability)
Description: For NTS and adult worms, transparent flat-bottom 96- and 24-well plates were used, respectively (Sarstedt, Switzerland). For juvenile worms, 48-well plates were used with 3–6 worms per plate and RPMI medium with 5% FCS and 1% penicillin/streptomycin. Compounds were initially tested at 20 and 10 μM in triplicate on NTS and repeated once; each well contained 30–40 NTS. Phenotypic reference points such as motility, morphology, and granularity were used to score incubated parasites’ overall viability (scores from 0 to 3). […] Identified hits from the NTS screening were tested on adult worms. […] The experiment was conducted in duplicate and repeated; standard deviations were calculated from two wells. […] For all in vitro assays, negative controls (DMSO at the highest tested concentration) were included.

adult worms = experiment: Adult worm viability phenotypic assay, 72 h; conditions: Schistosoma mansoni, read-out: IC50 (adult worm viability)
[3] = MTT cytotoxicity in RPE cells; assay type: cell-based; conditions: human, retinal pigment epithelial (RPE) cells
Description: (§1) The MTT method was used to evaluate cell viability after 72 h of treatment.
(§2) Human commercial lung diploid fibroblasts (MRC-5), and diploid retinal epithelium cells (RPE) were obtained from the American Type Culture Collection (ATCC) and kindly provided by Dr Francesca Degrassi (CNR IBPM) and maintained in minimal essential medium or DMEM-F12 medium supplemented with fetal calf serum, antibiotics, and nonessential amino acids. Cells were grown at 37 °C, in a humidified atmosphere, with 5% CO2. For experiments, cells were seeded in 200 μL of complete in each well of a 96-well microtiter plate. After 24 h, compounds were added at 5, 10, 25, and 50 μM for 72 h in sextuplicate. MTT was added (0.5 mg/mL), incubated for 4 h at 37 °C, and dissolved in 200 μL of isopropyl alcohol. Absorbance was measured at 570 nm (ELISA reader, DASIT), and cell viability was calculated as viability=(ODoftreatedcells/ODofcontrolcells)×100

[4] = MTT cytotoxicity in MRC-5 cells; assay type: cell-based; conditions: human, MRC-5 lung diploid fibroblast cells
Description: as §1, §2

[5] = ref 3 (SI: Fioravanti et al., J Enzyme Inhib Med Chem 2022)
[6] = ref 2 (SI: Fioravanti et al., ChemMedChem 2020)
[7] = 5 μM, read-out: percentage of viability, 72 h
[8] = 10 μM, read-out: percentage of viability, 72 h
[9] = 25 μM, read-out: percentage of viability, 72 h
[10] = 50 μM, read-out: percentage of viability, 72 h
[11] = read-out: IC50 (cell viability)

SMILES: NC1CC1c1ccc(NC(=O)c2ccc(-c3ccco3)cc2)cc1 (centres unmarked) [Compound 3]
- IC50 [1, 5]: 2000 nM
- Percentage of reduction of NTS viability, 72 h ([2]; 10 μM): 36.2 ± 0.9%
- Percentage of reduction of NTS viability, 72 h ([2]; 20 μM): 37.50 ± 0.0%
- IC50 [2]: > 20000 nM

SMILES: NC1CC1c1ccc(NC(=O)C2CCCN2C(=O)OCc2ccccc2)cc1 (centres unmarked) [Compound 10]
- IC50 ([1]; ref 4 (SI: Rodriguez et al., MedChemComm 2015)): 60 ± 10 nM
- Percentage of reduction of NTS viability, 72 h ([2]; 10 μM): 32.8 ± 0.9%
- Percentage of reduction of NTS viability, 72 h ([2]; 20 μM): 37.5 ± 4.2%
- IC50 [2]: > 20000 nM

SMILES: NC1CC1c1ccc(NC(=O)c2ccc(-c3ccsc3)cc2)cc1 (centres unmarked) [Compound 4]
- IC50 [1, 5]: 340 ± 110 nM
- Percentage of reduction of NTS viability, 72 h ([2]; 10 μM): 43.1 ± 0.9%
- Percentage of reduction of NTS viability, 72 h ([2]; 20 μM): 79.17 ± 0.0%
- IC50 [2]: > 10000 nM
- IC50 (adult worms): > 10000 nM

SMILES: NC1CC1c1ccc(NC(=O)C(Cc2csc3ccccc23)NC(=O)OCc2ccccc2)cc1 (centres unmarked) [Compound 13]
- IC50 [1, 6]: 80 ± 10 nM
- Percentage of reduction of NTS viability, 72 h ([2]; 10 μM): 36.2 ± 0.9%
- Percentage of reduction of NTS viability, 72 h ([2]; 20 μM): 50.0 ± 4.2%
- IC50 [2]: > 10000 nM

SMILES: NC1CC1c1ccc(NC(=O)Cc2cccc3ccccc23)cc1 (centres unmarked) [Compound 8]
- Percentage of reduction of NTS viability, 72 h ([2]; 10 μM): 46.5 ± 2.6%
- Percentage of reduction of NTS viability, 72 h ([2]; 20 μM): 50.0 ± 0.0%
- IC50 [2]: > 10000 nM

SMILES: CN1CCN(c2cc(C(=O)Nc3ccc(C4CC4N)cc3)ccc2NC(=O)OCc2ccccc2)CC1 (centres unmarked) [Compound 5]
- viability at 72 h, 5 µM [3, 7]: 63 ± 33%
- viability at 72 h, 10 µM [3, 8]: 72 ± 18%
- viability at 72 h, 25 µM [3, 9]: 82 ± 11%
- viability at 72 h, 50 µM [3, 10]: 57 ± 10%
- IC50 at 72 h [3, 11]: 55800 nM
- viability at 72 h, 5 µM [4, 7]: 75 ± 7%
- viability at 72 h, 10 µM [4, 8]: 59 ± 5%
- viability at 72 h, 25 µM [4, 9]: 58 ± 2%
- viability at 72 h, 50 µM [4, 10]: 39 ± 4%
- IC50 at 72 h [4, 11]: 24300 nM
- IC50 [1, 6]: 90 ± 10 nM
- Percentage of reduction of NTS viability, 72 h ([2]; 1 μM): 18.0 ± 1.0%
- Percentage of reduction of NTS viability, 72 h ([2]; 10 μM): 100 ± 0.0%
- Percentage of reduction of NTS viability, 72 h ([2]; 20 μM): 100 ± 0.0%
- IC50 [2]: 1350 nM
- IC50 (adult worms): 2230 nM

SMILES: NC1CC1c1ccc(NC(=O)C(Cc2ccccc2)NC(=O)OCc2ccccc2)cc1 (centres unmarked) [Compound 11, benzyl (1-((4-(2-aminocyclopropyl)phenyl)amino)-1-oxo-3-phenylpropan-2-yl)carbamate]
- IC50 (adult worms): > 20000 nM
